The values that follow come from patent US8586768B2, “Design, synthesis and functional characterization of rottlerin analogs” (priority 2009, dated 2013).

Series [1] deals with C57 black mice. The series is described as follows: Acute MPTP mouse model of PD, locomotor activity (VersaMax Analyzer). It counts as in vivo. The note with it: MPTP 4 x 18 mg/kg i.p.; 10 mg/kg oral gavage, 7 days. The method, then: (§1) Lead PK analogs protect against behavioral deficits and neurochemical loss in a preclinical MPTP-induced mouse model of PD. After characterizing the neuroprotective effect of PK analogs in cell culture models of PD, as a proof of principle, preliminary evaluation of two lead PK analogs in an acute MPTP animal model of PD were conducted. C57 black mice received 4 doses of MPTP at 18 mg/kg i.p at 2 hr interval. Oral administration of lead PK analogs (10 mg/kg body wt, oral gavage) was started 1 day before MPTP insult and continued for 7 days. 1% DMSO was used as the vehicle control. Locomotor activity was measured using the VersaMax Analyzer 1-2 days before sacrificing the mice. Mice were sacrificed after 7 days of MPTP injection. (n=5). (**p<0.01: PK analogs versus MPTP).

Series [2] deals with C57 black mice. The series is described as follows: Acute MPTP mouse model of PD, striatal dopamine and DOPAC. It counts as in vivo. To be noted: MPTP 4 x 18 mg/kg i.p.; 10 mg/kg oral gavage, 7 days. The method, then: as §1
Series [3] can be described thus: LC-MS-MS detection in mouse brain after oral administration. It counts as in vivo. The source says:
Bioavailability of Lead PK analogs. LC-MS-MS detection of lead PK analogs PK202 and PK8302 analog in mouse brain was completed.

The subject of series [4] is N27 cells. The note with it: 300 μM MPP+ 24 hr. The method, then: (§2) At the end of the treatment, cytotoxicity was measured using the Sytox cell death assay in a 96-well fluorescence microplate reader.
A second generation of rottlerin analogs was further utilized for neuroprotection studies, as shown as PK201-203 in FIG. 2.
as §2
The analogs were tested in an N27 dopaminergic cell model for their neuroprotective properties. […] At the end of the treatment, cytotoxicity was measured using the Sytox cell death assay in a 96-well fluorescence microplate reader.
(§3) Rat mesencephalic dopaminergic clonal cells (N27) were used and maintained in RPMI 1640 complete medium supplemented with 10% Fetal Bovine Serum, 1% […] and 1% Penicillin/Streptomycin in a 37° C. incubator with 5% CO2. After 4-6 days in culture, the cells were used for the experiments.
(§4) N27 cells were exposed to MPP^+ for 24 hr in the presence or absence of PK analogs in the dose range of 1-30 μM.

Series [5] concerns caspase-3 activity in N27 cells. The series is described as follows: MPP+-induced caspase-3 activity assay in N27 cells. It counts as cell-based, rat. The note with it: for relative protection against MPP+-induced caspase-3 activity within the generation / blockage of MPP+-induced caspase-3 activity: 300 μM MPP+ 24 hr; for relative protection against MPP+-induced caspase-3 activity within the generation: 0.3-10 μM; for blockage of MPP+-induced caspase-3 activity: co-treated with 0.3, 1, 3 and 10 μM. The method, then: To determine whether PK analogs are neuroprotective against MPP+-induced increases in caspase-3 and DNA fragmentation, their effects on MPP+-induced increases in caspase-3 activity and DNA fragmentation, markers of apoptotic cell death, were examined.
The second generation PK analogs were further tested to determine whether the analogs are neuroprotective against MPP+-induced apoptotic cell death. The effects on MPP+-induced increases in caspase-3 enzymatic activity were analyzed, a marker of apoptotic cell death. […] At the end of the treatment, cytotoxicity was measured using the caspase-3 assay in a 96-well fluorescence microplate reader.
The third generation PK analogs were further tested to determine whether the analogs are neuroprotective against MPP+-induced apoptotic cell death. The effects on MPP+-induced increases in caspase-3 enzymatic activity were examined, a marker of apoptotic cell death. N27 cells were exposed to 300 μM MPP+ for 24 hr in the presence or absence of three different PK compounds in the dose range of 0.3-10 μM. At the end of the treatment, cytotoxicity was measured using the caspase-3 assay in a 96-well fluorescence microplate reader.
as §3, §4

In another series the target is PKCδ (Homo sapiens, UniProt Q05655). To be noted: background statement; cited from earlier work.
PKCδ, sequence (Q05655 whole entry): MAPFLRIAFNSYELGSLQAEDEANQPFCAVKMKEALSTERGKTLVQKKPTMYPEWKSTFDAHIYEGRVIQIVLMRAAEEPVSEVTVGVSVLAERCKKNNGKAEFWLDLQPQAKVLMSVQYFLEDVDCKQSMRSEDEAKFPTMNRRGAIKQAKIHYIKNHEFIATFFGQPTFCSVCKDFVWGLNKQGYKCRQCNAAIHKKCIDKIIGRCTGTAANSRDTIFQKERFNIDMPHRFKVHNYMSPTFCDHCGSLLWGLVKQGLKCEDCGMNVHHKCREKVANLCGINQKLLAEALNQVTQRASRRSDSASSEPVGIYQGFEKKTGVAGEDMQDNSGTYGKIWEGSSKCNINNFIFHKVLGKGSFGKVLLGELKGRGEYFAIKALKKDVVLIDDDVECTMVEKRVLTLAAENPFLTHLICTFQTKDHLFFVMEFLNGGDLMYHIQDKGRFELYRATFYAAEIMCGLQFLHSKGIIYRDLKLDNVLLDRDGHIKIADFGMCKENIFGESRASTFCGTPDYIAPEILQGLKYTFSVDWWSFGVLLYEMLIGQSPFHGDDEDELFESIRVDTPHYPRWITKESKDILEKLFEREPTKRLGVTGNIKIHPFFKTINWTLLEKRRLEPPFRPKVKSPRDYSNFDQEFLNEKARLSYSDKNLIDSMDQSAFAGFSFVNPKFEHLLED
The subject of series [6] is mouse primary mesencephalic neuronal cultures. As to the kind of experiment: 3H-dopamine uptake assay after MPP+ exposure. It counts as cell-based. The note with it: 10 μM MPP+, 3 μM compound, 48 h. The method, then:
Lead PK analogs protect against MPP^+-induced loss of TH+ neurons in primary mesencephalic cultures. To determine if lead PK analogs protect against degeneration of nigral dopaminergic neurons resulting from MPP+ neurotoxicity, mouse primary mesencephalic neuronal cultures (prepared from E16-18-day-old mice embryos) were exposed to 10 μM MPP^+ in the presence or absence of 3 μM of lead PK analogs, PK103, PK202, PK302 and parent compound rottlerin for 48 h, and then assessed the viability of dopaminergic neurons using the ^3H-dopamine uptake assay. (***p<0.005 (vehicle versus MPTP. ##p<0.01 (PK analogs versus MPTP)). Mazindol, a dopamine reuptake inhibitor, was used as a positive control for the assay.

A short description of series [7]: Activity of simple rottlerin analogs compared with rottlerin (test not named). The method, then:
Design and Synthesis of Novel Rottlerin Analogs. Since Rottlerin has proven to be a difficult target to make synthetically, analogs have been developed and tested in an attempt to localize the region of activity and improve that activity. Initially, simple analogs of Rottlerin itself, obtained from CalBioChem (La Jolla, Calif., Cat #557370), were prepared and analyzed. Two compounds gave important results, one representing a simplified methylene linkage present in the parent compound (PK103), and the other (PK203) came from a simple bromination of natural Rottlerin.

The subject of series [8] is N27 cells. The series is described as follows: MPP+-induced DNA fragmentation in N27 cells. It is filed as cell-based, rat. To be noted: co-treated with 3 μM. An excerpt:
To determine whether PK analogs are neuroprotective against MPP+-induced increases in caspase-3 and DNA fragmentation, their effects on MPP+-induced increases in caspase-3 activity and DNA fragmentation, markers of apoptotic cell death, were examined. All three analogs PK101-103 protected N27 cells from MPP+-induced caspase-3 activation and DNA fragmentation. […] (**p<0.01 and ***p<0.001, compared to vehicle control; #p<0.05, ##p<0.01, compared to MPP+ treatment).

Where [9] appears, read: co-treated with 0.3, 1 and 3 μM.
Where [10] appears, read: mouse brain, oral administration (oral gavage).

Read-outs that look alike come from different tables or passages of the source.

As a reminder, the IC50 is the concentration at which inhibition is half-maximal.

On to `CC1(C)C=Cc2c(O)cc(O)c(C(=O)/C=C/c3ccccc3)c2O1` [PK302], for which, in the series on C57 black mice [1], the horizontal locomotor deficits entry is recorded as “significantly improved” and the vertical locomotor deficits entry was “significantly improved”. In the series with C57 black mice [2], the “striatal DOPAC depletion” value was “attenuated” and the striatal dopamine depletion entry is on record as “attenuated”. In addition, in [3] (mouse, in vivo, po), the “level detected in substantia nigra by LC-MS-MS” value (from here on “level detected”) was “Significant amounts”. Besides, the “relative potency against MPP+-induced cytotoxic cell death within the generation” value with N27 cells [4] is given as “more potent inhibitors than PK301”. In the series on N27 cells [4] (setting [9]), the “blockage of MPP+-induced cytotoxicity” value is given as “significant blockage”. In series [5], the “relative protection against MPP+-induced caspase-3 activity within the generation” value was “more effectively protect” and the “blockage of MPP+-induced caspase-3 activity” value is “significant blockage”.

Regarding `CC(=O)c1c(O)c(C)c(O)c(Cc2c(O)c3c(c(C(=O)/C=C/c4ccccc4)c2O)OC(C)(C)C=C3)c1O` [Rottlerin, (E)-1-[6-[(3-acetyl-2,4,6-trihydroxy-5-methylphenyl)methyl]-5,7-dihydroxy-2,2-dimethylchromen-8-yl]-3-phenylprop-2-en-1-one], the IC50 at PKCδ is 3 to 6 µM. Besides, the “level detected” value in series [3] (setting [10]) is “Significant levels”. The “protection against MPP+-induced loss of dopaminergic neurons (dopamine uptake)” value in series [6] is reported as “protected”.

On to `Oc1cc(O)c(Cc2c(O)cc(O)cc2O)c(O)c1` [PK103], for which, in series [7], the “activity compared with Rottlerin” value was “less activity than Rottlerin”. Also, in the series with C57 black mice [1], the horizontal locomotor deficits entry is “significantly improved” and the vertical locomotor deficits entry is given as “significantly improved”. In addition, the “blockage of MPP+-induced DNA fragmentation” value in the series with N27 cells [8] is recorded as “significant blockage”. Also, in the series with C57 black mice [2], the “striatal DOPAC depletion” value is “attenuated” and the striatal dopamine depletion result is “attenuated”. Moreover, the “blockage of MPP+-induced cytotoxicity” value with N27 cells [4] (co-treated with 3 μM) is given as “significant blockage”. Moreover, in series [5] (co-treated with 3 μM), the “blockage of MPP+-induced increases in caspase-3 activation” value is reported as “significant blockage”.

Consider `CC(=O)c1c(O)c(C)c(O)c(Cc2c(O)c3c(c4c2OC(c2ccccc2)CC4=O)OC(C)(C)C=C3)c1O` (centres unmarked) [PK202], for which, in the series with C57 black mice [1], the horizontal locomotor deficits entry is “significantly improved” and the vertical locomotor deficits result is recorded as “significantly improved”. Further, in the series on C57 black mice [2], the “striatal DOPAC depletion” value is recorded as “attenuated” and the striatal dopamine depletion entry is listed as “attenuated”. In addition, in series [3] (setting [10]), the “level detected” value was “Significant amounts”. Also, the “relative potency against MPP+-induced cytotoxic cell death within the generation” value in the series on N27 cells [4] is “most potent inhibitor”. Further, in the series on N27 cells [4] (setting [9]), the “blockage of MPP+-induced cytotoxicity” value is recorded as “significant blockage”. For the same compound, in series [5], the “relative protection against MPP+-induced caspase-3 activity within the generation” value is on record as “more effectively protects” and the “blockage of MPP+-induced caspase-3 activity” value is listed as “dose-dependent blockage”.
